Experimental data: patent publication US11667631B2, “FGFR4 inhibitor, preparation method therefor, and applications thereof” (Jiangsu Hansoh Pharmaceutical Group Co., Ltd., priority 2016, dated 2023)

Experiments:
[1] = Pharmacokinetic (PK) analysis in rats; assay type: in vivo, Sprague Dawley (SD) rats; settings: SD rats, single intragastric administration, 5 mg/kg; for Peak Time tmax: (sampling in hours); for AUC(0-t) / AUC(0-inf) / half-life / MRT / Cmax: Sprague-Dawley, rat, plasma, po; for AUC(0-t): read-out: Area Under Curve AUC0-t; for AUC(0-inf): read-out: Area Under Curve AUC0-∞; for half-life: read-out: Half-Time t1/2 (converted); for MRT: read-out: Mean Residence Time MRT; for Cmax: read-out: Plasma Concentration Cmax
Method: 1) 0.2 ml of intravenous blood was collected and placed in a K2EDTA test tube. The blood was centrifuged at room temperature at the speed of 1000˜3000×g for 5˜20 minutes to isolate the plasma, which was then stored at −80° C.
2) 160 μL of acetonitrile was added to 40 μL of plasma sample for precipitation, and then the mixture was centrifuged at the speed of 500˜2000×g for 5˜20 minutes.
3) 100 μL of treated solution was taken, and the concentration of the test compound was analyzed by LC/MS/MS. The LC/MS/MS analytical instrument was AB Sciex API 4000. • Liquid chromatography analysis: • Condition of Liquid chromatography: Shimadzu LC-20AD pump • Chromatographic column: phenomenex Gemiu 5 um C18 50×4.6 mm • Mobile phase: Solution A is 0.1% formic acid aqueous solution, and Solution B is acetonitrile • Flow rate: 0.8 mL/min • Elution time: 0-3.5 minutes, the eluent was used as follows: […]

[2] = test system: Hep 3B cells; test: Inhibition of Hep 3B cell proliferation (CellTiter-Glo); assay type: cell-based; settings: Homo sapiens, Hep3B, 72 h, read-out: Hep 3B IC50, Hep 3B cell proliferation, 72 hours, CellTiter-Glo
Method: In this experiment, the inhibitory effect of the compounds on Hep 3B cell proliferation was tested by a CellTiter-Glo method, and the half maximal inhibitory concentration (IC50) of the compounds on the activity of cell proliferation was determined.
1) A 96-well cell culture plate was seeded with 50˜100 μL of Hep 3B cell suspension at a density of 1˜5×10^4 cells/ml. The culture plate was incubated in an incubator for 16˜24 hours (37° C., 5% CO2).
(§1) 2) Different concentrations of the test compound in a gradient dilution were added to the cells in the culture plate. The culture plate was incubated in an incubator for 72 hours (37° C., 5% CO2).
(§2) 3) 50˜100 μL of CellTiter-Glo reagent were added to each well. Then, the culture plate was shaken or left to stand for 5˜30 minutes at room temperature.
(§3) 4) The chemiluminescence signal values of each plate were determined by a microplate reader.
(§4) 5) The inhibition rates were calculated according to the chemiluminescence signal values.

[3] = molecular target: FGFR1 kinase (Homo sapiens (Human), UniProt P11362); test: Enzymologic experiment of FGFR1 (TR-FRET); assay type: biochemical; settings: FGFR1 kinase activity
Method: In this experiment, the inhibitory effect of the compounds on FGFR1 kinase activity was tested by a fluorescence resonance energy transfer (TR-FRET) method, and the half maximal inhibitory concentration (IC50) of the compounds on the FGFR1 kinase activity was determined.
1) 1˜5 μL of FGFR1 enzyme solution was added to a 384-well plate, and the final concentration of the enzyme was 0.1˜5 nM.
2) 1˜5 μL of diluted solution in gradient of the compound was added.
3) 1˜5 μL of a substrate mixture containing substrate polypeptide with a final concentration of 5˜50 nM and ATP with a final concentration of 10˜200 μM was added.
4) The mixture was incubated for 0.5˜3 hours at room temperature.
5) 10 μL of EDTA and a test solution comprising labeled antibody were added, and the plate was incubated for 1 hour at room temperature.
6) The fluorescence signal values of each plate were determined by a microplate reader at 665 nm.
7) The inhibition rates were calculated according to the fluorescence signal values.
8) The IC50 of the compound was obtained by curve fitting according to the inhibition rates at different concentrations, and the enzymatic activity of the specific example compounds is shown in Table 1.

[4] = test system: SK-HEP-1 cells; test: Inhibition of SK-HEP-1 cell proliferation (CellTiter-Glo); assay type: cell-based; settings: Homo sapiens, SK-HEP1, 72 h, read-out: SK-HEP-1 IC50
Method: In this experiment, the inhibitory effect of the compounds on SK-HEP-1 cell proliferation was tested by a CellTiter-Glo method, and the half maximal inhibitory concentration (IC50) of the compounds on the activity of cell proliferation was determined.
1) A 96-well cell culture plate was seeded with 50˜100 μL of SK-HEP-1 cell suspension at a density of 1˜5×10^4 cells/ml. The culture plate was incubated in an incubator for 16˜24 hours (37° C., 5% CO2).
as §1, §2, §3, §4
(§5) 6) The IC50 of the compound was obtained by curve fitting according to the inhibition rates at different concentrations, and the cell activity of the specific example compounds is shown in Table 2.

[5] = test system: HuH-7 cells; test: Inhibition of HuH-7 cell proliferation (CellTiter-Glo); assay type: cell-based; settings: Homo sapiens, Huh-7, 72 h, read-out: HuH-7 IC50
Method: In this experiment, the inhibitory effect of the compounds on HuH-7 cell proliferation was tested by a CellTiter-Glo method, and the half maximal inhibitory concentration (IC50) of the compounds on the activity of cell proliferation was determined.
1) A 96-well cell culture plate was seeded with 50˜100 μL of HuH-7 cell suspension at a density of 1˜5×10^4 cells/ml. The culture plate was incubated in an incubator for 16˜24 hours (37° C., 5% CO2).
as §1
3) 50˜100 μL of CellTiter-Glo reagent was added to each well. Then, the culture plate was shaken or left to stand for 5˜30 minutes at room temperature.
as §3, §4, §5

FGFR1 kinase, sequence (P11362 22-822): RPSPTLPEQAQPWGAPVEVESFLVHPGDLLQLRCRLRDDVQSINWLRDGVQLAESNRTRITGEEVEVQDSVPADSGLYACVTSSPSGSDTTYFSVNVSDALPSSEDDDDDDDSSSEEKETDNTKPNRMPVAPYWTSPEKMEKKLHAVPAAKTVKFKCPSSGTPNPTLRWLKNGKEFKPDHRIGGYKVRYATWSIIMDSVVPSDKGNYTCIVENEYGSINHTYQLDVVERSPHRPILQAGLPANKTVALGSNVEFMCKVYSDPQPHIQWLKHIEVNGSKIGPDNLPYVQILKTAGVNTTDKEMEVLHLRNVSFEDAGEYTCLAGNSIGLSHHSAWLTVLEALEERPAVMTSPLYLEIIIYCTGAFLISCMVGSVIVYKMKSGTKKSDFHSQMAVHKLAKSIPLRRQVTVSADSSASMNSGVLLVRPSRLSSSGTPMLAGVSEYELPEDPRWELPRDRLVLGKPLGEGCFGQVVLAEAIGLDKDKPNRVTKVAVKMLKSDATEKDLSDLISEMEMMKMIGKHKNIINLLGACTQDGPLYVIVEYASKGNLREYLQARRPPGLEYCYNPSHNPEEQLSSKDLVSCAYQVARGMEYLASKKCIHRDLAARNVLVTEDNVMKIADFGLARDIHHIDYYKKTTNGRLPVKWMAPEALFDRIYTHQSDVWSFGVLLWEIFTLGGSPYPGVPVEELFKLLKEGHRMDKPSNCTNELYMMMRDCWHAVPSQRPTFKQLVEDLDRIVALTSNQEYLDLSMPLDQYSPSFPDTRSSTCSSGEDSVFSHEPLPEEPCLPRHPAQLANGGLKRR

CO[C@@H]1CCCC1Oc1cc(NC(=O)N2CCCc3cc(CN4CCOCC4=O)c(C=O)nc32)ncc1C#N (stereo partly drawn) [Example 16, N-(5-Cyano-4-(((trans)-2-methoxycyclopentyl)oxy)pyridin-2-yl)-7-formyl-6-((3-carbonylmorpholino)methyl)-3,4-dihydro-1,8-naphthyridin-1(2H)-carboxamide]
Peak Time tmax [1]: 2 h
AUC(0-t) [1]: 5520 ng·h/mL
AUC(0-inf) [1]: 5610 ng·h/mL
half-life [1]: 1.02 h
MRT [1]: 2.96 h
Cmax [1]: 1600 ng/mL
IC50 [2]: 10.5 nM
IC50 [3]: > 10000 nM
IC50 [4]: > 10000 nM
IC50 [5]: 13.2 nM

CO[C@@H]1CCN(c2cc(NC(=O)N3CCCc4cc(CN5C(=O)OC[C@@H]5C)c(C=O)nc43)ncc2C#N)C1 [Example 38, N-(5-Cyano-4-((R)-3-methoxypyrrolidin-1-yl)pyridin-2-yl)-7-formyl-6-(((S)-4-methyl-2-carbonyloxazolidin-3-yl)methyl)-3,4-dihydro-1,8-naphthyridin-1(2H)-carboxamide]
Peak Time tmax [1]: 2 h
AUC(0-t) [1]: 2400 ng·h/mL
AUC(0-inf) [1]: 2540 ng·h/mL
half-life [1]: 1.38 h
MRT [1]: 3.91 h
Cmax [1]: 2660 ng/mL
IC50 [2]: 13.3 nM
IC50 [3]: > 10000 nM
IC50 [4]: > 10000 nM
IC50 [5]: 11.8 nM

COC1CCN(c2cc(NC(=O)N3CCCc4cc(CN5CCOCC5=O)c(C=O)nc43)ncc2C#N)C1 (centres unmarked) [Example 4, N-(5-Cyano-4-(3-methoxypyrrolidin-1-yl)pyridin-2-yl)-7-formyl-6-((3-carbonylmorpholino)methyl)-3,4-dihydro-1,8-naphthyridin-1(2H)-carboxamide]
Peak Time tmax [1]: 2 h
AUC(0-t) [1]: 8740 ng·h/mL
AUC(0-inf) [1]: 8740 ng·h/mL
half-life [1]: 0.61 h
MRT [1]: 3.07 h
Cmax [1]: 3370 ng/mL
IC50 [2]: 2.5 nM
IC50 [3]: > 10000 nM
IC50 [4]: > 10000 nM
IC50 [5]: 18.4 nM

COCCSc1cc(NC(=O)N2CCCc3cc(CN4CCOCC4=O)c(C=O)nc32)ncc1C#N [Example 13, N-(5-Cyano-4-((2-methoxyethyl)thio)pyridin-2-yl)-7-formyl-6-((3-carbonylmorpholino)methyl)-3,4-dihydro-1,8-naphthyridin-1(2H)-carboxamide]
Peak Time tmax [1]: 2 h
AUC(0-t) [1]: 3510 ng·h/mL
AUC(0-inf) [1]: 3570 ng·h/mL
half-life [1]: 1.16 h
MRT [1]: 2.8 h
Cmax [1]: 1200 ng/mL
IC50 [2]: 20.8 nM
IC50 [3]: > 10000 nM
IC50 [4]: > 10000 nM
IC50 [5]: 32.3 nM

COCC1(Nc2cc(NC(=O)N3CCCc4cc(CN5CCOCC5=O)c(C=O)nc43)ncc2C#N)CC1 [Example 11]
Peak Time tmax [1]: 2 h
AUC(0-t) [1]: 3890 ng·h/mL
AUC(0-inf) [1]: 3960 ng·h/mL
half-life [1]: 1.16 h
MRT [1]: 2.68 h
Cmax [1]: 1540 ng/mL
IC50 [2]: 8.4 nM
IC50 [3]: > 10000 nM
IC50 [4]: > 10000 nM
IC50 [5]: 12.4 nM

CO[C@H]1CCN(c2cc(NC(=O)N3CCCc4cc(CN5CCOCC5=O)c(C=O)nc43)ncc2C#N)C1 [Example 51, (S)-N-(5-Cyano-4-(3-methoxypyrrolidin-1-yl)pyridin-2-yl)-7-formyl-6-((3-carbonylmorpholino)methyl)-3,4-dihydro-1,8-naphthyridin-1(2H)-carboxamide]
Peak Time tmax [1]: 2 h
AUC(0-t) [1]: 3720 ng·h/mL
AUC(0-inf) [1]: 3730 ng·h/mL
half-life [1]: 1.15 h
MRT [1]: 3.84 h
Cmax [1]: 1020 ng/mL
IC50 [2]: 25.1 nM
IC50 [3]: > 10000 nM
IC50 [4]: > 10000 nM
IC50 [5]: 27.5 nM

CO[C@@H]1CCC1Oc1cc(NC(=O)N2CCCc3cc(CN4CCOCC4=O)c(C=O)nc32)ncc1C#N (stereo partly drawn) [Example 61, N-(5-Cyano-4-trans-((1,2)-2-methoxycyclobutoxy)pyridin-2-yl)-7-formyl-6-((3-carbonylmorpholino)methyl)-3,4-dihydro-1,8-naphthyridin-1(2H)-carboxamide]
Peak Time tmax [1]: 2 h
AUC(0-t) [1]: 2110 ng·h/mL
AUC(0-inf) [1]: 2120 ng·h/mL
half-life [1]: 0.75 h
MRT [1]: 2.96 h
Cmax [1]: 2640 ng/mL
IC50 [2]: 3.7 nM
IC50 [3]: > 10000 nM
IC50 [4]: > 10000 nM
IC50 [5]: 6.2 nM

CO[C@H]1CCN(c2cc(NC(=O)N3CCCc4cc(CN5CCOC5=O)c(C=O)nc43)ncc2C#N)C1 [Example 40, (S)-N-(5-Cyano-4-(3-methoxypyrrolidin-1-yl)pyridin-2-yl)-7-formyl-6-((2-carbonyloxazolidin-3-yl)methyl)-3,4-dihydro-1,8-naphthyridin-1(2H)-carboxamide]
Peak Time tmax [1]: 2 h
AUC(0-t) [1]: 1080 ng·h/mL
AUC(0-inf) [1]: 1100 ng·h/mL
half-life [1]: 1.05 h
MRT [1]: 3.36 h
Cmax [1]: 1560 ng/mL
IC50 [2]: 38.7 nM
IC50 [3]: > 10000 nM
IC50 [4]: > 10000 nM
IC50 [5]: 29.6 nM

CO[C@@H]1CCC[C@H]1Nc1cc(NC(=O)N2CCCc3cc(CN4CCOCC4=O)c(C=O)nc32)ncc1C#N [Example 60, N-(5-Cyano-4-(((1R,2R)-2-methoxycyclopentyl)amino)pyridin-2-yl)-7-formyl-6-((3-carbonylmorpholino)methyl)-3,4-dihydro-1,8-naphthyridin-1(2H)-carboxamide]
Peak Time tmax [1]: 2 h
AUC(0-t) [1]: 3770 ng·h/mL
AUC(0-inf) [1]: 3790 ng·h/mL
half-life [1]: 0.88 h
MRT [1]: 2.26 h
Cmax [1]: 1300 ng/mL
IC50 [2]: 1 nM
IC50 [3]: > 10000 nM
IC50 [4]: > 10000 nM
IC50 [5]: 2.7 nM

CO[C@H]1CCC1Oc1cc(NC(=O)N2CCCc3cc(CN4CCOCC4=O)c(C=O)nc32)ncc1C#N (stereo partly drawn) [Example 62, N-(5-Cyano-4-cis-((1,2)-2-methoxycyclobutoxy)pyridin-2-yl)-7-formyl-6-((3-carbonylmorpholino)methyl)-3,4-dihydro-1,8-naphthyridin-1(2H)-carboxamide]
Peak Time tmax [1]: 2 h
AUC(0-t) [1]: 4020 ng·h/mL
AUC(0-inf) [1]: 4060 ng·h/mL
half-life [1]: 0.85 h
MRT [1]: 2.98 h
Cmax [1]: 2810 ng/mL
IC50 [2]: 3.4 nM
IC50 [3]: > 10000 nM
IC50 [4]: > 10000 nM
IC50 [5]: 4.2 nM

N#Cc1cnc(NC(=O)N2CCCc3cc(CN4CCCCOC4=O)c(C=O)nc32)cc1N[C@@H]1CCOC1 [Example 34, (R)-N-(5-Cyano-4-((tetrahydrofuran-3-yl)amino)pyridin-2-yl)-7-formyl-6-((2-carbonyl-1,3-oxazepin-3-yl)methyl)-3,4-dihydro-1,8-naphthyridin-1(2H)-carboxamide]
IC50 [2]: 2.3 nM
IC50 [3]: > 10000 nM
IC50 [4]: > 10000 nM
IC50 [5]: 4.9 nM
